Data from patent publication US7220425B2, “Method for therapy of liver tumors” (Federalnoe Gosudarstvennoe Unitarnoe Predpriyatie …, priority 2000, dated 2007).

Key:
Format in all cases: in vivo, rats
[1] = Effect of length of occlusion of afferent and abducent vessels on accumulation of Teraphtalum; conditions: for Content of Teraphtalum: 35 min after administration
Procedure: (§1) Practically speaking, the method is carried out in the following manner. A median laparotomy is conducted, afferent (a branch of the portal vein and hepatic artery) and efferent (a branch of the hepatic vein) vessels of the target lobe of the liver are isolated. They are taken on tourniquets. A puncture of the branch of the portal vein is made, the preparation is introduced therein, simultaneously stopping the flow of blood: the blood inflow—through branches of the portal vein (proximal to the place of puncture) and the hepatic artery, outflow—through a branch of the hepatic vein. Restoration of the blood flow is accomplished by removing clamps from the vessels 5–15 minutes after administration of the preparation.
(§2) Teraphtalum in a dose of 60 or 300 μg per rat in the form of 0.6 ml of a 0.01 and 0.05% solution was administered into a branch of the portal vein of a target lobe of the liver.
The results of a study of the effect of the length of the period of occlusion of the afferent and abducent vessels of the target lobe of the liver on the accumulation of TP therein are presented in Table 3.

[2] = Distribution of Teraphtalum with the known regional administration (general trunk of portal vein); conditions: known regional method, 5 mg/kg
Procedure: (§3) The studies were carried out on mongrel rats weighing 150 g, obtained from the N. V. Blokhin ONTs breeder and contained in the vivarium of that center.
Teraphtalum (TP) was administered once into the general trunk of the portal vein in a dose of 5 mg/kg (this was 1 mg of TP for a rat weighing 200 g). Accumulation of the preparation in the liver, lungs and its level in blood plasma were evaluated by the spectrophotometric method 5, 35 and 240 minutes after the administration.

[3] = Distribution of Teraphtalum with the proposed regional method (branch of portal vein of target lobe with occlusion); conditions: for Content of Teraphtalum: proposed method, 0.3 mg (0.6 ml, 0.01% solution), healthy rats
Procedure: as §1, §3, §2
Accumulation of the preparation in the target lobe (subjected to occlusion), in the intact lobe of the liver (not subjected to occlusion) and also in the blood plasma were studied 5, 35 and 240 minutes after administration of the preparation by the proposed method.

O=C(O)c1cc2c(cc1C(=O)O)C1=Nc3c4cc(C(=O)O)c(C(=O)O)cc4c4[n]3[Co][n]3c(c5cc(C(=O)O)c(C(=O)O)cc5c3=NC3=NC(=N4)c4cc(C(=O)O)c(C(=O)O)cc43)=NC2=N1 [Teraphtalum, cobalt octacarboxy phthalocyanine]
Content of Teraphtalum ([1]; blood plasma, control = selective administration without occlusion): 6 µg/g | Content of Teraphtalum ([1]; blood plasma, occlusion 5 min, 0.3 mg (0.6 ml of 0.01% solution), proposed method): 5 µg/g | Content of Teraphtalum ([1]; blood plasma, occlusion 15 min, 0.3 mg (0.6 ml of 0.01% solution), proposed method): 7 µg/g | Content of TP ([1]; intact lobe of liver as worded in text, without occlusion (control), 30 minutes after administration): 20 µg/g | Content of Teraphtalum ([1]; intact lobe of liver, occlusion 5 min, 0.3 mg (0.6 ml of 0.01% solution), proposed method): 7 µg/g | Content of Teraphtalum ([1]; intact lobe of liver, occlusion 15 min, 0.3 mg (0.6 ml of 0.01% solution), proposed method): 6 µg/g | Content of Teraphtalum ([1]; intact lobe, control = selective administration without occlusion): 17 µg/g | Content of Teraphtalum ([1]; target lobe of liver, occlusion 5 min, 0.3 mg (0.6 ml of 0.01% solution), proposed method): 35 µg/g | Content of Teraphtalum ([1]; target lobe of liver, occlusion 15 min, 0.3 mg (0.6 ml of 0.01% solution), proposed method): 35 µg/g | Content of Teraphtalum ([1]; target lobe, control = selective administration without occlusion): 20 µg/g | Content of TP ([1]; that (target) lobe as worded in text, without occlusion (control), 30 minutes after administration): 17 µg/g | Level of TP in the plasma ([1]; without occlusion (control), 30 minutes after administration): 6 μg/g of untreated tissue | Content of Teraphtalum ([2]; liver, 5 min after administration): 15 μg/g of untreated tissue | Content of Teraphtalum ([2]; liver, 35 min after administration): 60 μg/g of untreated tissue | Content of Teraphtalum ([2]; liver, 240 min after administration): 51 μg/g of untreated tissue | Content of Teraphtalum ([2]; lungs, 5 min after administration): 46 μg/g of untreated tissue | Content of Teraphtalum ([2]; lungs, 35 min after administration): 28 μg/g of untreated tissue | Content of Teraphtalum ([2]; lungs, 240 min after administration): 57 μg/g of untreated tissue | Content of Teraphtalum ([2]; plasma, 5 min after administration): 92.4 μg/g of untreated tissue | Content of Teraphtalum ([2]; plasma, 35 min after administration): 39.6 μg/g of untreated tissue | Content of Teraphtalum ([2]; plasma, 240 min after administration): 14.4 μg/g of untreated tissue | Concentration of TP in target lobe of liver, proposed method versus known regional method ([3]; first minutes after administration, dose in proposed method 16.5 times less): 2 times higher | Content of Teraphtalum ([3]; intact lobe of liver, 5 min): 7 μg/g of untreated tissue | Content of Teraphtalum ([3]; intact lobe of liver, 35 min): 5 μg/g of untreated tissue | Content of Teraphtalum ([3]; intact lobe of liver, 240 min): 9 μg/g of untreated tissue | Content of Teraphtalum ([3]; plasma, 5 min): 3 μg/g of untreated tissue | Content of Teraphtalum ([3]; target lobe of liver, 5 min): 30 μg/g of untreated tissue | Content of Teraphtalum ([3]; target lobe of liver, 35 min): 33 μg/g of untreated tissue | Content of Teraphtalum ([3]; target lobe of liver, 240 min): 48 μg/g of untreated tissue
